Measurements reported in patent US7777049B2, “Crystalline forms of Rizatriptan benzoate” (ratiopharm GmbH, priority 2004, dated 2010).

Test: Suspension equilibration of a Form A / Form B mixture in ethyl acetate, product identified by X-ray powder diffraction
Format: physicochemical
Details: 7 mg Form A and 7 mg Form B suspended in 1 ml ethyl acetate, stirred 16 hours at 25° C.; Form A obtained by XRPD
Method: 7 mg rizatriptan benzoate Form A and 7 mg Form B are suspended in 1 ml ethyl acetate, and stirred 16 hours at 25° C. After filtration, a white powder is obtained.
X-ray powder diffraction measurements were performed on a Philips 1710 powder X-ray diffractometer using Cu Kα radiation (Cu Kα1=1.54060 Å). The X-ray source is operated at 45 kV and 45 mA. Spectra are recorded at a step size of 0.02° with a counting time of 2.4 seconds per step. The accuracy of the 2 theta values of conventionally recorded powder X-ray diffraction patterns is generally ±0.1-0.2°. For sample preparation, about 40 mg of substance was prepared into circular shaped quartz sample holders of 0.5 mm depth and 10 mm width.

relative thermodynamic stability of the crystalline form	SMILES
thermodynamically most stable form	CN(C)CCc1c[nH]c2ccc(Cn3cncn3)cc12 [Form A, N,N-dimethyl-5-(1H-1,2,4-triazol-1-ylmethyl)-1H-indole-3-ethanamine benzoate]
metastable form	CN(C)CCc1c[nH]c2ccc(Cn3cncn3)cc12 [Form B, N,N-dimethyl-5-(1H-1,2,4-triazol-1-ylmethyl)-1H-indole-3-ethanamine benzoate]
